Our source for the Ki values is patent publication US7115624B1, “Method of inhibiting protein tyrosine phosphatase 1B and/or T-cell protein tyrosine phosphatase 4 and/or other PTPases with an Asp residue at position 48” (Novo Nordisk A/S, priority 1999, dated 2006).

Structures are written as SMILES. Positions count from the first letter of the chain named. Like-named read-outs stand apart in the source and are kept apart here.

Format in all cases: biochemical
The target of experiment [1] is T1, PTPα (Homo sapiens, UniProt P18433).
T1 construct: PTPα D1
The experiment in a line: PTPase inhibition, p-nitrophenyl phosphate substrate, Ki. To be noted: pH 7.0 (Table 5); read-out: Ki values, PTPα.

The target in another experiment is T2, PTP1B G259Q (Homo sapiens, UniProt P18031, G259Q).
T2 sequence (P18031 1-435 G259Q): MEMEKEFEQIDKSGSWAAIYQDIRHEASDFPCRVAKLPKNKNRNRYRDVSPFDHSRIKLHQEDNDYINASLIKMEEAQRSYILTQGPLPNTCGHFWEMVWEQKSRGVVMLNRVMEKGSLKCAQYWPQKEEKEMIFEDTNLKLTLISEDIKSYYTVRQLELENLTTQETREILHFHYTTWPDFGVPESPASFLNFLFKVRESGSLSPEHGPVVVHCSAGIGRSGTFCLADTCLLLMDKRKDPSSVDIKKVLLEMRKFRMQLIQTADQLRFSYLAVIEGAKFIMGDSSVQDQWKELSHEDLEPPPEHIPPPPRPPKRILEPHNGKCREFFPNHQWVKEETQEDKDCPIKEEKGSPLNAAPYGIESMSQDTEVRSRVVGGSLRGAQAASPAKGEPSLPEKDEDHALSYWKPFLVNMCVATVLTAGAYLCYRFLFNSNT
The experiment in a line: Enzyme kinetic analysis with mutant PTPs, Ki. The note with it: pH 7.0. The text has this:
(§1) To test directly, whether the above compound was addressing the proposed region of PTP1B, Compound N was subjected to detailed enzyme kinetic analyses using a set of wildtype (wt) and mutant PTPs. Two enzymes, PTPα and PTPH1, were chosen as representatives for PTPs with bulky side chains in the 259 position. Using a combination of wt and PTP mutants it has previously been shown that Gln259 in PTPα, in addition to its direct effect, also indirectly influences the binding of inhibitors and substrates, most likely due to a negative influence on the rotational freedom of the side chain of Gln262 (Peters et al., J. Biol. Chem. 275: 18201–18209 (2000)). As described above, selectivity can be obtained by introducing a basic nitrogen into 2-(oxalylamino)-4,5,6,7-tetrahydrobenzo[b]thiophene-3-carboxylic acid that causes attraction in PTP1B due to salt bridge formation to Asp48 and repulsion against PTPs with an asparagine in the 48 position, such as PTPα. To analyze if the current approach based on steric hindrance is generally applicable, it was decided to include a PTP with an aspartic acid in position 48. PTPH1, which like PTP1B is an intracellular enzyme with one domain only, was selected for these studies. The results of these studies are shown below (Table 4).
(§2) The assay conditions are as follows.

The next experiment has as its target T3, PTP1B G259M (Homo sapiens, UniProt P18031, G259M).
T3 sequence (P18031 1-435 G259M): T2 sequence (P18031 1-435 G259Q) with Q259M
The experiment in a line: Enzyme kinetic analysis with mutant PTPs, Ki. To be noted: pH 7.0.
Excerpt: as §1, §2

The next experiment concerns the target T4, PTPH1 M259G (Homo sapiens, UniProt P26045, M883G).
T4 sequence (P26045 628-913 M883G limits assumed): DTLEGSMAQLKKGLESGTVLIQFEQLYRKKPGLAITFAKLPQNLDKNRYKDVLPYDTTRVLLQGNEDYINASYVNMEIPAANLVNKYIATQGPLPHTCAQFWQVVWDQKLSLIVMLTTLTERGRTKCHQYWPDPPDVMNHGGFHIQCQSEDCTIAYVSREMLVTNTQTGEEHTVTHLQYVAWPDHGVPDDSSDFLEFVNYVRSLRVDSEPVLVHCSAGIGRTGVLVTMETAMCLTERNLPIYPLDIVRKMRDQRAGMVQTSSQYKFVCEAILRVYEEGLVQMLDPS
The experiment in a line: Enzyme kinetic analysis with mutant PTPs, Ki. To be noted: pH 7.0.
Excerpt: as §1, §2

The target in another experiment is PTPα Q259G (Homo sapiens, UniProt P18433, Q483G). The experiment in a line: Enzyme kinetic analysis with mutant PTPs, Ki. To be noted: pH 7.0.
The target in another experiment is T5, PTPH1 (Homo sapiens, UniProt P26045).
T5 sequence (P26045 646-901 limits assumed): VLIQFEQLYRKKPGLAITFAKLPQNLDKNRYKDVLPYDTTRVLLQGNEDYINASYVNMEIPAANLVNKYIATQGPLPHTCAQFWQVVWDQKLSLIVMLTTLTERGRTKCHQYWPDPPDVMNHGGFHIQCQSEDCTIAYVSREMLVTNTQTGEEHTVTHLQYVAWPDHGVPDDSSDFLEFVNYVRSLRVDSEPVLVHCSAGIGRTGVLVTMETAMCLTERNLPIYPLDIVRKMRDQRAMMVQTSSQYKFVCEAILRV
The experiment in a line: PTPase inhibition, p-nitrophenyl phosphate substrate, Ki. The note with it: pH 7.0; wt (Table 4).
Excerpt: as §1, §2

The target in experiment [2] is T1, PTPα. The experiment is described as above. The note with it: pH 7.0; wt (Table 4).
Excerpt: as §1, §2

T1 sequence (P18433 241-501 limits assumed): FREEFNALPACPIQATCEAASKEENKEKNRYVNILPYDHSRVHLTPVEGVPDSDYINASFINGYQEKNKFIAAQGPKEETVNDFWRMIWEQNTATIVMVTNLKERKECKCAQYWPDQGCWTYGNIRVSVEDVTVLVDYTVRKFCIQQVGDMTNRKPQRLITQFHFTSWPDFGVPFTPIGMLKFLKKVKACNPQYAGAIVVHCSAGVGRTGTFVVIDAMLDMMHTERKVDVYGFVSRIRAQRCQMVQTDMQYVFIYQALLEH
PTPα Q259G, sequence (P18433 211-512 Q483G limits assumed): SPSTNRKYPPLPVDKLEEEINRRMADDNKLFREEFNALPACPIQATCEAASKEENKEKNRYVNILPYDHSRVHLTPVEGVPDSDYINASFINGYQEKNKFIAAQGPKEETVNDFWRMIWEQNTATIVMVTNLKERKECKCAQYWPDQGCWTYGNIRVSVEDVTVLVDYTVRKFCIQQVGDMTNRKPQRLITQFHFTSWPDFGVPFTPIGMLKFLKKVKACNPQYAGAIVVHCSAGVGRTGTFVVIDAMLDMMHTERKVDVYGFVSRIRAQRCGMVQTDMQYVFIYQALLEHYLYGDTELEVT
Description for PTPα Q259G: The compounds are evaluated for biological activity with a truncated form of PTP1B (corresponding to the first 321 amino acids), which was expressed in E. coli and purified to apparent homogeneity using published procedures well-known to those skilled in the art. The enzyme reactions are carried out using standard conditions essentially as described by Burke et al. (Biochemistry 35; 15989–15996 (1996)) incorporated by reference. The assay conditions are as follows. Appropriate concentrations of the compounds of the invention (e.g., 0.1 to 100 μM) are added to the reaction mixtures containing different concentrations of the substrate, p-nitrophenyl phosphate (range: 0.16 to 10 mM—final assay concentration). The buffer used was 50 mM HEPES pH 7.0, 100 mM sodium chloride, 0.1% (w/v) bovine serum albumin, 5 mM glutathione, and 1 mM EDTA. […] The enzyme activity was determined by measurement of the absorbance at 405 nm with appropriate corrections for absorbance at 405 nm of the compounds and p-nitrophenyl phosphate. The data are analyzed using nonlinear regression fit to classical Michaelis Menten enzyme kinetic models. Inhibition is expressed as Ki values in μM.

The Ki is a measure of affinity in units of concentration, obtained from inhibition or displacement. Regarding `O=C(O)C(=O)Nc1sc2c(c1C(=O)O)CCOC2COC1=NS(=O)(=O)c2ccccc21` (stereo not shown) [Compound N, 7-(1,1-dioxo-1H-benzo[d]isothiazol-3-yloxymethyl)-2-(oxalyl-amino)-4,7-dihyd ro-5H-thieno[2,3-c]pyran-3-carboxylic acid], the Ki worked out at 700 µM at PTPα [1]; 65 µM at PTP1B G259Q; 55 µM on PTP1B G259M; 12 µM on PTPH1 M259G; 70 µM at PTPα Q259G; 55 µM at PTPH1. Besides, the Ki at PTPα [2] is > 500 µM.
